Experimental data from publication PMC4331650 (Biochimica et Biophysica Acta, 2014).
Positions count from the first letter of the chain named.

Legend:
[1] = test system: rat CLC-K1; conditions: HEK293 cells; all concentrations tested, from 0.3 to 2000 μM; cited from earlier work
[2] = molecular target: T1, CLC-K1 without barttin (Rattus norvegicus, UniProt Q06393); experiment: NFA effect on WT CLC-K1 without barttin, voltage clamp in Xenopus oocytes; type: cell-based
T1 sequence (Q06393 1-687): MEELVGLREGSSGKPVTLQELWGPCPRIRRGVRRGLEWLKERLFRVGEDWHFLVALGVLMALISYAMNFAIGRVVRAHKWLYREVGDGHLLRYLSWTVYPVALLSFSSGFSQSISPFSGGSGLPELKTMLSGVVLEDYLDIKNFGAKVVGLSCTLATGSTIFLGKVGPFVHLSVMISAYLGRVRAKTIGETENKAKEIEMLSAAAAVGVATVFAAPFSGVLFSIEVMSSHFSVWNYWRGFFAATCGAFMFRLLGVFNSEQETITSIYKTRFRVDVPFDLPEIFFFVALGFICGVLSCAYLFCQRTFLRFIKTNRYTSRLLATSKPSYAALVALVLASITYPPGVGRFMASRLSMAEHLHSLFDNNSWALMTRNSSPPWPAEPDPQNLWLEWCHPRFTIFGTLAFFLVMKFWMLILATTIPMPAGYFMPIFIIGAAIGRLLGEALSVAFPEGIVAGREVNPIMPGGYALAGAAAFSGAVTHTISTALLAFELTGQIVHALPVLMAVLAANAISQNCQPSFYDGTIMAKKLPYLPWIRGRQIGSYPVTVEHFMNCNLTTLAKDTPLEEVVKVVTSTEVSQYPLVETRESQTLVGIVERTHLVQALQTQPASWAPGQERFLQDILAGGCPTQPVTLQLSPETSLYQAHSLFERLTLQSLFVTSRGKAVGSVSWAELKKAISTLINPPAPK

[3] = molecular target: T2, F256A CLC-Ka (Homo sapiens, UniProt P51800, F256A); type: cell-based; conditions: 200 μM NFA, 60 mV
T2 sequence (P51800 1-687 F256A): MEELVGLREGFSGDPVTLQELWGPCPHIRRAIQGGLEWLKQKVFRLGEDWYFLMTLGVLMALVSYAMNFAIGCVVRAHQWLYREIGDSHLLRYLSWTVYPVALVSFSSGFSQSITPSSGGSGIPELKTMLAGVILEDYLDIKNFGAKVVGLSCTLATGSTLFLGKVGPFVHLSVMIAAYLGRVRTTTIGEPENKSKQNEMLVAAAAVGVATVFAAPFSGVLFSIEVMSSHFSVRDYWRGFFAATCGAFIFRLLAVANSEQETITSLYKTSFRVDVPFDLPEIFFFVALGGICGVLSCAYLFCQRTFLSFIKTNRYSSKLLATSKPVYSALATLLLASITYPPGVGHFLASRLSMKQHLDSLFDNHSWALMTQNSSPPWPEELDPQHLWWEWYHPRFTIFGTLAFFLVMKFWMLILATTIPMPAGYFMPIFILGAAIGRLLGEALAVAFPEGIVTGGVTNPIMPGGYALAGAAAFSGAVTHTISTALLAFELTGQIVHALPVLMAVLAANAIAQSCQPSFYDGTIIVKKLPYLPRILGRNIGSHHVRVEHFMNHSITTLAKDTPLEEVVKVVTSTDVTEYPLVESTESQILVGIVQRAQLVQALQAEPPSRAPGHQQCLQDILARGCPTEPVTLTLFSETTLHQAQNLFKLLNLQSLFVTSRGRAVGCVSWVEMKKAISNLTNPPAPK
T2 sequence (Q8WZ55 1-320 Y98A partner): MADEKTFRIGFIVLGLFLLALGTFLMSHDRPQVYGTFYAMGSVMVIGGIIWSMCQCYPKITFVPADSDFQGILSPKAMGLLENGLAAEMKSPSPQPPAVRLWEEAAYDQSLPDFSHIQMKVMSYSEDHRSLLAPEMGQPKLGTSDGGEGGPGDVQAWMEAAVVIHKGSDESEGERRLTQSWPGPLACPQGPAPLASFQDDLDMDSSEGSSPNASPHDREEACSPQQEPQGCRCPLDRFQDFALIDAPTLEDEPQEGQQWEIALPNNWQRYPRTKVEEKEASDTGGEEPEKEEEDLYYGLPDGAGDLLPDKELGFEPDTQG

[4] = test system: hCLC-Kb; conditions: [NFA]ext up to 2 mM; cited from earlier work
[5] = molecular target: T2, F256A CLC-Ka; type: cell-based; conditions: 200 μM NFA
[6] = molecular target: T3, N257A CLC-K1/barttin (Rattus norvegicus, UniProt Q06393, N257A); experiment: NFA effect on N257A CLC-K1 with barttin, voltage clamp in Xenopus oocytes; type: cell-based; conditions: 200 μM NFA
T3 sequence (Q06393 1-687 N257A): T1 sequence (Q06393 1-687) with N257A
T3 sequence (Q8WZ55 1-320 Y98A partner): T2 sequence (Q8WZ55 1-320 Y98A partner)

## O=C(O)c1cccnc1Nc1cccc(C(F)(F)F)c1 [NFA, niflumic acid]
[1]
  effect of NFA on currents: inhibited
[2]; 10 μM NFA
  currents relative to control conditions: about 80%
[2]; 200 μM NFA
  currents relative to control conditions: ~45%
[3]; SD, n = 5 patches
  average current increase: 39 +/− 13
[3]; n = 3
  single channel current in NFA (average): 1.75 ± 0.10 pA
[3]; patch of Fig. 4
  distance of Gaussian components of the amplitude histogram in NFA: 1.8 pA
[3]; the single patch shown in Fig. 4
  increase of mean current in the patch: about 53 fold
[4]
  effect on hCLC-Kb: potentiated
[5]; judged from variance–mean plots without curvature
  open probability after potentiation by NFA: below 0.5
[5]; −100 mV and 60 mV, noise analysis
  effect on single channel conductance: does not change significantly
[6]
  sensitivity to NFA compared with WT: only weakly more sensitive
